Molecular target: T1, GSPT1 (Homo sapiens, UniProt P15170+Q96SW2)
T1 construct: host or cells: HEK293 LgBiT cell line
Assay: GSPT1 HiBit degradation assay
Format: cell-based
Details: HEK293 LgBiT cells expressing GSPT1_HiBiT, luminescence after 6 hours
Description: Promega developed a HEK293 cell line that constitutively expresses LgBiT protein and GSPT1_HiBiT fusion protein. When both proteins are present, the HiBiT portion of the fusion protein combines with LgBiT protein to form a functional luciferase enzyme. Endurazine, a cell permeable small molecule, is converted by cellular esterases into furimazine, which the luciferase enzyme uses as a substrate to generate luminescence. When GSPT1 is degraded, the HiBit is also degraded. This prevents formation of fully functional luciferase, leading to a loss in luminescence. GSPT1 degradation therefore correlates with a decrease in luminescence and can be measured continuously over time. The concentration of compound at which 50% GSPT1 degradation occurs (DC50) was calculated using this system.
• HEK293 LgBiT Cell line (Promega Custom) • Endurazine Substrate (Promega Cat. #N2570) • DMEM (Gibco Cat. #11995) • Penicillin/Streptomycin (Gibco Cat. #15140-122) • Heat Inactivated Fetal Bovine Serum (Gibco Cat. #A38400-01) • Hygromycin B (Gibco Cat. #10-687-010) • 384 Well TC Treated White Microplate (Perkin Elmer Cat. #6007680)
HEK293 LgBiT cells were cultured in DMEM Media supplemented with 10% FBS, 5% Pen/Strep, 200 μg/ml hygromycin and stored in an incubator set at 37° C. and 5% CO2. 18-24 hours prior to compound treatment, HEK293 LgBiT cells were seeded at 1000 cells/well in a 384-well microplate in 25 μl complete media. The plate was spun at 300 g for 30 seconds and stored in the incubator overnight. The next day, compounds were titrated in DMSO and added to media supplemented with endurazine substrate. A 25 ul aliquot of 2× compound/endurazine in media were then added to the 384-well microplate with seeded cells. (Endurazine was used at a final concentration of 0.5×). The plate was spun at 300 g for 30 seconds and stored in the incubator. After 6 hours the plate was read on a Perkin Elmer MultiMode Plate Reader Envision 2105 to measure luminescence signal.

T1 sequence (P15170 whole entry): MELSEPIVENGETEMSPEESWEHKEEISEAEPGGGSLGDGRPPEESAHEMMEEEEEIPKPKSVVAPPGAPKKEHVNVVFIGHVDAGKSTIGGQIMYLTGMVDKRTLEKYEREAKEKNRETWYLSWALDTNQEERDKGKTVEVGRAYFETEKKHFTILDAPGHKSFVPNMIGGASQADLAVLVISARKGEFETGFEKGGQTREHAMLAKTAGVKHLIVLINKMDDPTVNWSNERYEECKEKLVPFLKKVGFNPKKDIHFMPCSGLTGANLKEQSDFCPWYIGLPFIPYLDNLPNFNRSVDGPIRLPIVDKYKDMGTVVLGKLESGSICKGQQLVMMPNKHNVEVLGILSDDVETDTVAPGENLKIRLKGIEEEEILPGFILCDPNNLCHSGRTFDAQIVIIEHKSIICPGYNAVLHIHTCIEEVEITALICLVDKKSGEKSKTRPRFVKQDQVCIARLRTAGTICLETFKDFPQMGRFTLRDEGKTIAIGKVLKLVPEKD
T1 sequence (Q96SW2 whole entry): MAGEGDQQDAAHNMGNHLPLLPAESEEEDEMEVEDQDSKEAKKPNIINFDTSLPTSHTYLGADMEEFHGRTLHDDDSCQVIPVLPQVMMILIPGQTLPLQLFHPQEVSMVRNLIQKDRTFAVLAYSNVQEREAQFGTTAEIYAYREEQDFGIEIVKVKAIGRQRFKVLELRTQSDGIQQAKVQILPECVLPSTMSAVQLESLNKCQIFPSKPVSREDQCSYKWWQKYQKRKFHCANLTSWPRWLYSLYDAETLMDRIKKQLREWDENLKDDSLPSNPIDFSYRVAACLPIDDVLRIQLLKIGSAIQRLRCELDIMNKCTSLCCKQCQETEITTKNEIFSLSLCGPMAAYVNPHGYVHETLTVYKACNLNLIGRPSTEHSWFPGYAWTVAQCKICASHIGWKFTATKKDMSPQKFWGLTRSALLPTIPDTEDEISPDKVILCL
T1 sequence (Q16531 whole entry partner): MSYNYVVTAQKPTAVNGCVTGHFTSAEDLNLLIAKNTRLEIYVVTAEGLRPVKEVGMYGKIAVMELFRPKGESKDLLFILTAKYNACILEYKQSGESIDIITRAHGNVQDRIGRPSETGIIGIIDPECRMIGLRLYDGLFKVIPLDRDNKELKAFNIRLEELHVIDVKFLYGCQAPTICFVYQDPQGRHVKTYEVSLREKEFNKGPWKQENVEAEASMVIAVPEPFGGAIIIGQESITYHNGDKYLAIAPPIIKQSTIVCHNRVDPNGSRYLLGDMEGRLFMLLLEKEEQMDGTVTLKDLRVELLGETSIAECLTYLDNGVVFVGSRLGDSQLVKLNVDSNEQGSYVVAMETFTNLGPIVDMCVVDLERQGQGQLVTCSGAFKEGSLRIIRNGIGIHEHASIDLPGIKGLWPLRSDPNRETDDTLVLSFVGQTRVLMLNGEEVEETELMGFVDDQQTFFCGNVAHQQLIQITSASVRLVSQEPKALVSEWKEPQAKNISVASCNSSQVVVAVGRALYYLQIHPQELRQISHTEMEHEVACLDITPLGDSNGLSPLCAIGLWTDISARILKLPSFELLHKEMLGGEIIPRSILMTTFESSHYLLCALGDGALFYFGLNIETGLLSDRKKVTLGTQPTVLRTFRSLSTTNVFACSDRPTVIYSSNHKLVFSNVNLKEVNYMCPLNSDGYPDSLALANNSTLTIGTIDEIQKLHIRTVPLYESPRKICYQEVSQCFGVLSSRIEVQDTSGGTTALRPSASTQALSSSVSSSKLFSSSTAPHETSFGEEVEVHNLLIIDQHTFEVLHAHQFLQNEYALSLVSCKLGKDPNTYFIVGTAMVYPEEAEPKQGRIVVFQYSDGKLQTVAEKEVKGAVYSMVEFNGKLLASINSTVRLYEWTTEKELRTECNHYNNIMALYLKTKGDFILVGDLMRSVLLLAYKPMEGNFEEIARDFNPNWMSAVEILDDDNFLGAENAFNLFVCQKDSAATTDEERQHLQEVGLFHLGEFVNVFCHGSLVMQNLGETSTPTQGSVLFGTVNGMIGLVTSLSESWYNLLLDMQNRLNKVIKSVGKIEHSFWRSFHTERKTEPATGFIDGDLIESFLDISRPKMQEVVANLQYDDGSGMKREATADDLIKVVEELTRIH

DC50 (Table 3A)	DC50 (Table 3)	Structure (SMILES)
250 to 5000 nM	–	C=CC(=O)Nc1cc(Nc2nccc(-c3cn(C)c4ccccc34)n2)c(OC)cc1N(C)CCN(C)CCOCCOCCOCCOCCOCCOCCOCCCCCc1cc(Cl)cc(NC(=O)NCc2ccc3c(c2)CN(C2CCC(=O)NC2=O)C3=O)c1 (stereo not shown) [Compound I-139]
< 250 nM	–	Nc1ncnc2c1c(-c1ccc(Oc3ccccc3)cc1)nn2[C@@H]1CCCN(C(=O)/C=C/COCCOCCOCCOCCOCCOCCOCCCCCCCCc2cc(Cl)cc(NC(=O)NCc3ccc4c(c3)CN(C3CCC(=O)NC3=O)C4=O)c2)C1 (stereo partly shown) [Compound I-85]
–	5000 to 10000 nM	COc1cc(N2CCN(C(=O)COCCOCCOCCOCCOCCOCCOCCOCCOCCOCCc3cc(Cl)cc(NC(=O)NCc4ccc5c(c4)CN(C4CCC(=O)NC4=O)C5=O)c3)CC2)ccc1Nc1ncc(Cl)c(Nc2ccccc2P(C)(C)=O)n1 (stereo not shown) [Compound I-45]
> 10000 nM	–	COc1cc(N2CCN(C(=O)COCCOCCOCCOCCOCCOCCOc3cc(Cl)cc(NC(=O)NCc4ccc5c(c4)CN(C4CCC(=O)NC4=O)C5=O)c3)CC2)ccc1Nc1ncc(Cl)c(Nc2ccccc2P(C)(C)=O)n1 (stereo not shown) [Compound I-25]
250 to 5000 nM	–	CN(C/C=C/C(=O)N1CCC[C@@H](n2nc(-c3ccc(Oc4ccccc4)cc3)c3c(N)ncnc32)C1)CCOCCOCCOCCOCCOCCOCCOCCOCCOCCOCCCCCCCCc1cc(Cl)cc(NC(=O)NCc2ccc3c(c2)CN(C2CCC(=O)NC2=O)C3=O)c1 (stereo partly shown) [Compound I-83]
< 250 nM	–	CN(C/C=C/C(=O)N1CCN(c2nc(OC[C@@H]3CCCN3C)nc3c2CCN(c2cccc4cccc(Cl)c24)C3)C[C@@H]1CC#N)CCOCCOCCOCCOCCOCCOCCCCCCCCc1cc(Cl)cc(NC(=O)NCc2ccc3c(c2)CN(C2CCC(=O)NC2=O)C3=O)c1 (stereo partly shown) [Compound I-84]
< 250 nM	–	Nc1ncnc2c1c(-c1ccc(Oc3ccccc3)cc1)nn2[C@@H]1CCCN(C(=O)/C=C/COCCOCCOCCOCCOCCOCCOCCOCCOCCCCCCCCc2cc(Cl)cc(NC(=O)NCc3ccc4c(c3)CN(C3CCC(=O)NC3=O)C4=O)c2)C1 (stereo partly shown) [Compound I-93]
> 10000 nM	–	COc1cc(N2CCN(C(=O)COCCOCCOCCOCCOCCOCCOCCOCCOCCOCCOc3cc(Cl)cc(NC(=O)NCc4ccc5c(c4)CN(C4CCC(=O)NC4=O)C5=O)c3)CC2)ccc1Nc1ncc(Cl)c(Nc2ccccc2P(C)(C)=O)n1 (stereo not shown) [Compound I-24, 1-[3-chloro-5-[2-[2-[2-[2-[2-[2-[2-[2-[2-[2-[2-[4-[4-[[5-chloro-4-(2-dimethylphosphorylanilino)pyrimidin-2-yl]amino]-3-methoxy-phenyl]piperazin-1-yl]-2-oxo-ethoxy]ethoxy]ethoxy]ethoxy]ethoxy]ethoxy]ethoxy]ethoxy]ethoxy]ethoxy]ethoxy]phenyl]-3-[[2-(2,6-dioxo-3-piperidyl)-1-oxo-isoindolin-5-yl]methyl]urea]
250 to 5000 nM	–	COc1cc(N2CCN(C(=O)COCCOCCOCCOCCOCCOCCOCCOCCOCCCCCc3cc(Cl)cc(NC(=O)NCc4ccc5c(c4)CN(C4CCC(=O)NC4=O)C5=O)c3)CC2)ccc1Nc1ncc(Cl)c(Nc2ccccc2P(C)(C)=O)n1 (stereo not shown) [Compound I-141]
250 to 5000 nM	–	C=CC(=O)NC1CN(c2nc(Nc3cn(CCOCCOCCOCCOCCOCCOCCOCCOCCOCCCCCc4cc(Cl)cc(NC(=O)NCc5ccc6c(c5)CN(C5CCC(=O)NC5=O)C6=O)c4)nc3OC)c3ncn(C)c3n2)C[C@H]1F (stereo partly shown) [Compound I-126]
–	5000 to 10000 nM	COc1cc(N2CCN(C(=O)COCCOCCOCCOCCOCCOCCOCCOCCc3cc(Cl)cc(NC(=O)NCc4ccc5c(c4)CN(C4CCC(=O)NC4=O)C5=O)c3)CC2)ccc1Nc1ncc(Cl)c(Nc2ccccc2P(C)(C)=O)n1 (stereo not shown) [Compound I-27]
–	5000 to 10000 nM	C=CC(=O)Nc1cc(Nc2nccc(-c3cn(C)c4ccccc34)n2)c(OC)cc1N(C)CCN(C)CCOCCOCCOCCOCCOCCOCCOCCOCCOCCOCCOc1cc(Cl)cc(NC(=O)NCc2ccc3c(c2)CN(C2CCC(=O)NC2=O)C3=O)c1 (stereo not shown) [Compound I-60]
5000 to 10000 nM	–	CN(C/C=C/C(=O)N1CCC[C@@H](n2nc(-c3ccc(Oc4ccccc4)cc3)c3c(N)ncnc32)C1)CCOCCOCCOCCOCCOCCOCCOCCOCCOCCCCCc1cc(Cl)cc(NC(=O)NCc2ccc3c(c2)CN(C2CCC(=O)NC2=O)C3=O)c1 (stereo partly shown) [Compound I-117]
–	< 250 nM	Cc1c(CC(=O)N(C)C)ccc(NC(=O)c2nn([C@@H]3CCCN(C(=O)/C=C/CN(C)CCOCCOCCOCCOCCOCCOCCOCCOCCCCCCCCc4cc(Cl)cc(NC(=O)NCc5ccc6c(c5)CN(C5CCC(=O)NC5=O)C6=O)c4)C3)c3ncnc(N)c23)c1C (stereo partly shown) [Compound I-69]
–	< 250 nM	C=CC(=O)Nc1cc(Nc2nccc(-c3cn(C)c4ccccc34)n2)c(OC)cc1N(C)CCN(C)CCOCCOCCOCCOCCOCCOCCOCCOCCCCCCCCc1cc(Cl)cc(NC(=O)NCc2ccc3c(c2)CN(C2CCC(=O)NC2=O)C3=O)c1 (stereo not shown) [Compound I-68]

The next lines start with the compound.

Structure (SMILES)	DC50 (Table 3A)	DC50 (Table 3)
C=CC(=O)N1CCN(c2nc(=O)n(-c3c(C)cc(OCCOCCOCCOCCOCCOCCCCCc4cc(Cl)cc(NC(=O)NCc5ccc6c(c5)CN(C5CCC(=O)NC5=O)C6=O)c4)nc3C(C)C)c3nc(-c4c(O)cccc4F)c(F)cc23)[C@@H](C)C1 (stereo partly shown) [Compound I-149]	250 to 5000 nM	–
CCN(CCOCCOCCOCCOCCCCCCCCCCCCCCc1cc(Cl)cc(NC(=O)NCc2ccc3c(c2)CN(C2CCC(=O)NC2=O)C3=O)c1)CCOc1ccc(C(=O)c2c(-c3ccc(O)cc3)sc3cc(O)ccc23)cc1 (stereo not shown) [Compound I-59]	–	250 to 5000 nM
Nc1ncnc2c1c(-c1ccc(Oc3ccccc3)cc1)nn2[C@@H]1CCCN(C(=O)/C=C/COCCOCCOCCOCCOCCCCCCCCc2cc(Cl)cc(NC(=O)NCc3ccc4c(c3)CN(C3CCC(=O)NC3=O)C4=O)c2)C1 (stereo partly shown) [Compound I-82]	< 250 nM	–
Cc1c(NC(=O)c2ccc(C3CC3)cc2F)cc(F)cc1-c1ncnc(N)c1OCCN(C)C(=O)/C=C/CN(C)CCOCCOCCOCCOCCOCCOCCOCCOCCOCCOCCOCCCCCc1cc(Cl)cc(NC(=O)NCc2ccc3c(c2)CN(C2CCC(=O)NC2=O)C3=O)c1 (stereo not shown) [Compound I-143]	250 to 5000 nM	–
CCN(CCOCCOCCOCCOCCCCCCCCc1cc(Cl)cc(NC(=O)NCc2ccc3c(c2)CN(C2CCC(=O)NC2=O)C3=O)c1)CCOc1ccc(C(=O)c2c(-c3ccc(O)cc3)sc3cc(O)ccc23)cc1 (stereo not shown) [Compound I-77]	< 250 nM	–
CCN(CCOCCOCCOCCOCCOCCOCCCCCCCCc1cc(Cl)cc(NC(=O)NCc2ccc3c(c2)CN(C2CCC(=O)NC2=O)C3=O)c1)CCOc1ccc(C(=O)c2c(-c3ccc(O)cc3)sc3cc(O)ccc23)cc1 (stereo not shown) [Compound I-55]	–	< 250 nM
C=C(F)C(=O)N1CCN(c2nc(OC[C@@H]3CCCN3CCCOCCOCCOCCOCCOCCCCCc3ccc(Cl)cc3NC(=O)NCc3ccc4c(c3)CN(C3CCC(=O)NC3=O)C4=O)nc3c2CCN(c2cccc4cccc(Cl)c24)C3)C[C@@H]1CC#N (stereo partly shown) [Compound I-140]	250 to 5000 nM	–
CCN(CCCCCCCCc1cc(Cl)cc(NC(=O)NCc2ccc3c(c2)CN(C2CCC(=O)NC2=O)C3=O)c1)CCOc1ccc(C(=O)c2c(-c3ccc(O)cc3)sc3cc(O)ccc23)cc1 (stereo not shown) [Compound I-58]	–	< 250 nM
CN(C/C=C/C(=O)N1CCN(c2nc(OC[C@@H]3CCCN3C)nc3c2CCN(c2cccc4cccc(Cl)c24)C3)C[C@@H]1CC#N)CCOCCOCCOCCOCCCCCCCCc1cc(Cl)cc(NC(=O)NCc2ccc3c(c2)CN(C2CCC(=O)NC2=O)C3=O)c1 (stereo partly shown) [Compound I-81]	< 250 nM	–
Cc1c(CC(=O)N(C)C)ccc(NC(=O)c2nn([C@H]3CCCN(C(=O)/C=C/CN(C)CCOCCOCCOCCOCCCCCCCCc4cc(Cl)cc(NC(=O)NCc5ccc6c(c5)CN(C5CCC(=O)NC5=O)C6=O)c4)C3)c3ncnc(N)c23)c1C (stereo partly shown) [Compound I-64]	–	< 250 nM
